Laboratory results taken from patent publication US20070004660A1, “Synergistic Modulation of Flt3 Kinase Using Alkylquinolines and Alkylquinazolines” (priority 2005, published 2007).
Read-outs that look alike come from different tables or passages of the source.

Columns and labels:
FLT3 = FLT3 phosphorylation in MV4-11 tumors from treated mice (immunoblot); format: in vivo, human; details: single dose 100 mg/kg po, tumors harvested 2 hours later
Protocol: To establish further that FLT3 inhibitors of Formula I′ reached the expected target in tumor tissue, the level of FLT3 phosphorylation in tumor tissue obtained from vehicle- and compound-treated mice was measured. Results for FLT3 inhibitor Compound B (Compound 73 of Formula I′) and FLT3 inhibitor Compound C (Compound 74 of Formula I′) are shown in FIG. 3 and FIG. 4, respectively. For this pharmacodynamic study, a sub-set of 10 mice from the vehicle-treated control group were randomized into two groups of 5 mice each and then treated with another dose of vehicle or compound (100 mg/kg, po). Tumors were harvested 2 hours later and snap frozen for assessment of FLT3 phosphorylation by immunobloting.
Harvested tumors were processed for immunoblot analysis of FLT3 phosphorylation in the following manner: 100 mg of tumor tissue was dounce homogenized in lysis buffer (50 mM Hepes, 150 mM NaCl, 10% Glycerol, 1% Triton-X-100, 10 mM NaF, 1 mM EDTA, 1.5 mM MgCl2, 10 mM NaPyrophosphate) supplemented with phosphatase (Sigma Cat# P2850) and protease inhibitors (Sigma Cat #P8340). Insoluble debris was removed by centrifugation at 1000×g for 5 minutes at 4° C. Cleared lysates ([…] of total potein at 10 mg/ml in lysis buffer) were incubated with 10 μg of agarose conjugated anti-FLT3 antibody, clone C-20 (Santa Cruz cat # sc-479ac), for 2 hours at 4° C. with gentle agitation. […]

MV4-11 AML cells = assay: Cell proliferation assay, single agents and FTI/FLT3 inhibitor combinations, MV4-11; format: cell-based, human; details: Homo sapiens, MV4-11; proliferation; FLT3 inhibitor alone or, in combination lines, in the combination
Protocol: Dose responses for the individual compounds alone were determined for each cell line using a standard 72-hour cell proliferation assay (see FIGS. 6.1-6.8). The standard chemotherapeutic agent Cytarabine was used as a control cytotoxic agent in all experiments. […] The FLT3 inhibitors, Compounds A, B, C, D, E, F G and H individually have good potency (sub-micromolar) for the inhibition of FLT3 driven proliferation (compared to the first line cytotoxic agent Cytarabine and Tipifarnib) in cells that depend on FLT3 for growth. Each of these chemically distinct compounds alone has potential for the treatment of disorders related to FLT3, such as FLT3 positive AML. […] The FLT3 inhibitors tested had no effect on THP-1 proliferation. […] (See FIGS. 10.1-10.8 and Tables 1-3, hereafter.)
To statistically evaluate the synergy of a FLT3 inhibitor and an FTI in FLT3 dependent cell lines, dosing combinations were evaluated by the method of Chou and Talalay. See Chou T C, Talalay P. (1984) “Quantitative analysis of dose-effect relationships: the combined effects of multiple drugs or enzyme inhibitors.” Adv Enzyme Regul. 22:27-55. […] Using this method, multiple FTI and FLT3 combinations were evaluated. […]
Cell proliferation assay for MV4-11, Baf3-ITD, Baf3-FLT3 and THP-1 cells. […] Total cell growth is quantified as the difference in luminescent counts (relative light units, RLU) of cell number at Day 0 compared to total cell number at Day 3 (72 hours of growth and/or compound treatment). One hundred percent inhibition of growth is defined as an RLU equivalent to the Day 0 reading. […]
Combination Index Analysis. To determine growth inhibition synergy of a FTI and FLT3 inhibitor combination based on the method of Chou and Talalay (Chou and Talalay. See Chou T C, Talalay P. (1984) “Quantitative analysis of dose-effect relationships: the combined effects of multiple drugs or enzyme inhibitors.” Adv Enzyme Regul. 22:27-55. ), fixed ratio combination dosing with isobolar statistical analysis was performed. […]

MV-4-11 tumor xenografts = assay: In vivo combination study, FLT3 inhibitor Compound B and Tipifarnib, MV-4-11 xenografts; details: for effect on tumor growth compared to Vehicle-treated group: nine days
Protocol: The effect of combination treatment of the FLT3 Inhibitor FLT3 inhibitors of Formula I′ and Tipifarnib (Zarnestra™) on the growth of MV-4-11 human AML tumor xenografts in nude mice was tested using FLT3 inhibitor Compound B. The in vivo study was designed to extend the in vitro observations to evaluate the potential for a synergistic anti-tumor effect of FLT3 inhibitor Compound B administered orally together with Tipifarnib to nude mice bearing established MV-4-11 tumor xenografts.

MV4-11 tumor xenografts = details: for reduction of final tumor weight compared to vehicle-treated group / tumor regression, decrease versus starting mean tumor volume on Day 1: 11 days; for decrease of mean tumor volume compared to vehicle-treated group: Day 11
Protocol: The oral anti-tumor efficacy of a subset of the compounds of the invention was evaluated in vivo using a nude mouse MV4-11 human tumor xenograft regression model.

Q: How did the “level of FLT3 phosphorylation in MV4-11 tumors versus vehicle” value (FLT3) turn out when `CN1CCN(CCCOc2ccc3c(C4CCN(C(=O)Nc5ccc(N6CCOCC6)cc5)CC4)ncnc3c2)CC1` [FLT3 inhibitor Compound B, 4-{7-[3-(4-Methyl-piperazin-1-yl)-propoxy]-quinazolin-4-yl}-piperidine-1-carboxylic acid (4-morpholin-4-yl-phenyl)-amide] was run?
A: Its value is “biologically significant reduction”.

Q: What about the IC50 (MV4-11 AML cells) of the same compound?
A: Its IC50 is 31.3 nM.

Q: What about the “effect on tumor growth compared to Vehicle-treated group” value (MV-4-11 tumor xenografts; 10 mg/kg bid po) of the same compound?
A: Its value is “marginal significant inhibition of tumor growth”.

Q: And the “effect on tumor growth compared to Vehicle-treated group” value (MV-4-11 tumor xenografts; 20 mg/kg bid po)?
A: Its value is “tumor growth stasis”.

Q: And the overt toxicity (MV-4-11 tumor xenografts; 9-day treatment, either agent alone or in combination)?
A: Its overt toxicity is “No overt toxicity”.

Q: And the “reduction of final tumor weight compared to vehicle-treated group” value (“reduction of final tumor weight” below) (MV4-11 tumor xenografts; 10 mg/kg b.i.d. po)?
A: The value was 48%.

Q: What about the “decrease of mean tumor volume compared to vehicle-treated group” value (shortened to “decrease of mean tumor volume”) (MV4-11 tumor xenografts; 10 mg/kg b.i.d. po) of the same compound?
A: The value was 44%.

Q: What about the “reduction of final tumor weight” value (MV4-11 tumor xenografts; 30 mg/kg b.i.d. po) of the same compound?
A: The value was 85%.

Q: What about the “tumor regression, decrease versus starting mean tumor volume on Day 1” value (MV4-11 tumor xenografts; 30 mg/kg b.i.d. po) of the same compound?
A: The value was 42%.

Q: What about the “decrease of mean tumor volume” value (MV4-11 tumor xenografts; 30 mg/kg b.i.d. po) of the same compound?
A: The value was 84%.

Q: What about the “reduction of final tumor weight” value (MV4-11 tumor xenografts; 100 mg/kg b.i.d. po) of the same compound?
A: Its value is 99%.

Q: What about the “tumor regression, decrease versus starting mean tumor volume on Day 1” value (MV4-11 tumor xenografts; 100 mg/kg b.i.d. po) of the same compound?
A: The value was 77%.

Q: What about the “decrease of mean tumor volume” value (MV4-11 tumor xenografts; 100 mg/kg b.i.d. po) of the same compound?
A: The value was 94%.
